# Reference: US20250304717A1, “CAMPTOTHECIN DERIVATIVE AND LIGAND-DRUG CONJUGATE” (HAINAN SIMCERE ZAIMING PHARMACEUTICAL CO., LTD., priority 2022, published 2025)
# Like-named read-outs stand apart in the source and are kept apart here.
# Assays:
# HCT116 cells = assay: Anti-tumor cell proliferation activity of compound of formula (D-H), Cell-Titer Glo, HCT116; format: cell-based; conditions: Homo sapiens, HCT-116, 72 h
# Experimental: (§1) Cell culture: HCT116 cells and SKBR3 cells were cultured with a McCoy's 5a medium containing 10% fetal bovine serum+1% penicillin-streptomycin at 37° C. with 5% CO2, and OVCAR3 cells were cultured with a 1640 medium containing 20% fetal bovine serum+2 μg/mL bovine insulin+1% penicillin-streptomycin at 37° C. with 5% CO2. Cells at logarithmic growth phase were available for the experiment.
# (§2) Cell proliferation activity test: The Cell-Titer Glo reagent was used to test the compound for inhibitory activity on proliferation of the three cell strains HCT116, SKBR3, and OVCAR3. HCT116 cells (1500 per well), SKBR3 cells (3000 per well), and OVCAR3 cells (5000 per well) were seeded on 96-well plates and incubated at 37° C. with 5% CO2 for 24 h. After a solution of the compound to be detected was added (the compound was dissolved in DMSO so that the compound concentration was 1 mM, then the compound was diluted to […] in DMSO at 9 concentrations in a 3-fold dilution, and 10 μL of the prepared compound solution was transferred to the 96-well plate so that the final concentration was 0-300 nM), the mixture was incubated at 37° C. with 5% CO2. HCT116 cells were cultured for 3 days, and SKBR3 cells and OVCAR3 cells were cultured for 5 days. The Cell-Titer Glo reagent was added and the cell activity was measured.
# (§3) A negative control group and a positive control group were respectively used as Bottom and Top. The negative control group was not added with cells, only added with the culture medium in the same volume, and other operations were consistent with those of the experimental group. The positive control group was not added with the test drug, and other operations were consistent with those of the experimental group.
# (§4) Data analysis: % Inhibition was calculated, and compound IC50 was fitted.
# (§5) % Inhibition=1-100%×(Signal−Bottom)/(Top−Bottom).
# (§6) Signal referred to the signal value of the experimental group, Bottom referred to the average signal value of the negative control group, and Top referred to the average signal value of the positive control group.
# SKBR3 cells = assay: Anti-tumor cell proliferation activity of compound of formula (D-H), Cell-Titer Glo, SKBR3; format: cell-based, human; conditions: Homo sapiens, SK-BR-3, 120 h, read-out: SKBR3 Antiproliferative activity IC50 (nM), SKBR3 cells, 5 days
# Experimental: as §1, §2, §3, §4, §5, §6
# [1] = read-out: HCT116 Antiproliferative activity IC50 (nM), HCT116 cells, 3 days
SMILES,IC50 (HCT116 cells; [1]),IC50 (SKBR3 cells),"IC50 (HCT116 cells; HCT116 cells, 3 days, read-out: HCT116 Antiproliferative activity IC50)"
"CC[C@@]1(O)C(=O)OCc2c1cc1n(c2=O)Cc2c-1nc1ccc3c(c1c2CNC(=O)CO)CCC3 [Compound 7, (S)-N-((8-ethyl-8-hydroxy-9,12-dioxo-2,3,8,9,12,14-hexahydro-1H,11H-cyclopenta[f]pyrano[3′,4′:6,7]indolizino[1,2-b]quinolin-15-yl)methyl)-2-hydroxyacetamide]",10 to 100 nM,–,–
"CC[C@@]1(O)C(=O)OCc2c1cc1n(c2=O)Cc2c-1nc1cc(Cl)c(C)cc1c2CNC(=O)C1(O)CC1 [Compound 10, (S)-N-((8-chloro-4-ethyl-4-hydroxy-9-methyl-3,14-dioxo-3,4,12,14-tetrahydro-1H-pyrano[3′,4′:6,7]indolizino[1,2-b]quinolin-11-yl)methyl)-1-hydroxycyclopropane-1-carboxamide]",< 10 nM,2.3 nM,–
"CC[C@@]1(O)C(=O)OCc2c1cc1n(c2=O)Cc2c-1nc1cc(Cl)c(C)cc1c2CNC(=O)C(C)(C)O [Compound 17, (S)-N-((8-chloro-4-ethyl-4-hydroxy-9-methyl-3,14-dioxo-3,4,12,14-tetrahydro-1H-pyrano[3′,4′:6,7]indolizino[1,2-b]quinolin-11-yl)methyl)-2-hydroxy-2-methylpropanamide]",< 10 nM,2.7 nM,–
"CC[C@@]1(O)C(=O)OCc2c1cc1n(c2=O)Cc2c-1nc1cc(Cl)c3occc3c1c2CNC(=O)C(O)C1CC1 (stereo partly drawn) [Compound 28, N—(((S)-4-chloro-8-ethyl-8-hydroxy-9,12-dioxo-8,9,12,14-tetrahydro-11H-furo[3,2-f]pyrano[3′,4′:6,7]indolizino[1,2-b]quinolin-15-yl)methyl)-2-cyclopropyl-2-hydroxyacetamide]",< 10 nM,–,–
"CC[C@@]1(O)C(=O)OCc2c1cc1n(c2=O)Cc2c-1nc1cnc(Br)cc1c2CNC(=O)CO [Compound 15, (S)-N-((9-bromo-4-ethyl-4-hydroxy-3,14-dioxo-3,4,12,14-tetrahydro-1H-pyrano[3′,4′:6,7]indolizino[1,2-b][1,7]naphthyridin-11-yl)methyl)-2-hydroxyacetamide]",10 to 100 nM,–,–
"CC[C@@]1(O)C(=O)OCc2c1cc1n(c2=O)Cc2c-1nc1cc3c(cc1c2CNC(=O)CO)OCCO3 [Compound 1, (S)-N-((8-ethyl-8-hydroxy-9,12-dioxo-2,3,8,9,12,14-hexahydro-11H-[1,4]dioxino[2,3-g]pyrano[3′,4′:6,7]indolizino[1,2-b]quinolin-15-yl)methyl)-2-hydroxyacetamide]",–,8.5 nM,–
"CC[C@@]1(O)C(=O)OCc2c1cc1n(c2=O)Cc2c-1nc1cc(F)c(C)cc1c2CNC(=O)C1(O)CC1 [Compound 9, (S)-N-((4-ethyl-8-fluoro-4-hydroxy-9-methyl-3,14-dioxo-3,4,12,14-tetrahydro-1H-pyrano[3′,4′:6,7]indolizino[1,2-b]quinolin-11-yl)methyl)-1-hydroxycyclopropane-1-carboxamide]",< 10 nM,2.1 nM,–
"CC[C@@]1(O)C(=O)OCc2c1cc1n(c2=O)Cc2c-1nc1cc(F)c(Br)cc1c2CNC(=O)CO [Compound 5, (S)-N-((9-bromo-4-ethyl-8-fluoro-4-hydroxy-3,14-dioxo-3,4,12,14-tetrahydro-1H-pyrano[3′,4′:6,7]indolizino[1,2-b]quinolin-11-yl)methyl)-2-hydroxyacetamide]",–,3.3 nM,–
"CC[C@@]1(O)C(=O)OCc2c1cc1n(c2=O)Cc2c-1nc1cc(Cl)c(C)cc1c2CNC(=O)C(O)C1CC1 (stereo partly drawn) [Compound 11, N—(((S)-8-chloro-4-ethyl-4-hydroxy-9-methyl-3,14-dioxo-3,4,12,14-tetrahydro-1H-pyrano[3′,4′:6,7]indolizino[1,2-b]quinolin-11-yl)methyl)-2-cyclopropyl-2-hydroxyacetamide]",–,3.2 nM,–
"CC[C@@]1(O)C(=O)OCc2c1cc1n(c2=O)Cc2c-1nc1cc(F)c(Cl)cc1c2CNC(=O)CO [Compound 3, (S)-N-((9-chloro-4-ethyl-8-fluoro-4-hydroxy-3,14-dioxo-3,4,12,14-tetrahydro-1H-pyrano[3′,4′:6,7]indolizino[1,2-b]quinolin-11-yl)methyl)-2-hydroxyacetamide]",–,3.6 nM,–
"CC[C@@]1(O)C(=O)OCc2c1cc1n(c2=O)Cc2c-1nc1cc3c(c(F)c1c2CNC(=O)[C@@H](O)C1CC1)OCO3 [Compound 35-P1, 2-cyclopropyl-N-(((S)-7-ethyl-15-fluoro-7-hydroxy-8,11-dioxo-7,8,11,13-tetrahydro-10H-[1,3]dioxolo[4,5-g]pyrano[3′,4′:6,7]indolizino[1,2-b]quinolin-14-yl)methyl)-2-hydroxyacetamide]",–,–,< 10 nM
"CC[C@@]1(O)C(=O)OCc2c1cc1n(c2=O)Cc2c-1nc1cc(Cl)c3occc3c1c2CNC(=O)CO [Compound 27, (S)-N-((4-chloro-8-ethyl-8-hydroxy-9,12-dioxo-8,9,12,14-tetrahydro-11H-furo[3,2-f]pyrano[3′,4′:6,7]indolizino[1,2-b]quinolin-15-yl)methyl)-2-hydroxyacetamide]",10 to 100 nM,–,–
"[2H]C1([2H])Oc2cc3nc4c(c(CNC(=O)C(O)C5CC5)c3cc2O1)Cn1c-4cc2c(c1=O)COC(=O)[C@]2(O)CC (stereo partly drawn) [Compound 19, 2-cyclopropyl-N—(((S)-7-ethyl-7-hydroxy-8,11-dioxo-7,8,11,13-tetrahydro-10H-[1,3]dioxolo[4,5-g]pyrano[3′,4′:6,7]indolizino[1,2-b]quinolin-14-yl-2,2-d2)methyl)-2-hydroxyacetamide]",< 10 nM,–,–
"CC[C@@]1(O)C(=O)OCc2c1cc1n(c2=O)Cc2c-1nc1cc(F)c(Cl)c(F)c1c2CNC(=O)C1(O)CC1 [Compound 16, (S)-N-((9-chloro-4-ethyl-8,10-difluoro-4-hydroxy-3,14-dioxo-3,4,12,14-tetrahydro-1H-pyrano[3′,4′:6,7]indolizino[1,2-b]quinolin-11-yl)methyl)-1-hydroxycyclopropane-1-carboxamide]",< 10 nM,2.3 nM,–
"CC[C@@]1(O)C(=O)OCc2c1cc1n(c2=O)Cc2c-1nc1cc3c(c([N+](=O)[O-])c1c2CNC(=O)C(O)C1CC1)OCO3 (stereo partly drawn) [Compound 29, 2-cyclopropyl-N—(((S)-7-ethyl-7-hydroxy-15-nitro-8,11-dioxo-7,8,11,13-tetrahydro-10H-[1,3]dioxolo[4,5-g]pyrano[3′,4′:6,7]indolizino[1,2-b]quinolin-14-yl)methyl)-2-hydroxyacetamide]",10 to 100 nM,–,–
"CC[C@@]1(O)C(=O)OCc2c1cc1n(c2=O)Cc2c-1nc1cc(Cl)c(C)cc1c2CNC(=O)C(O)C(C)C (stereo partly drawn) [Compound 18, N—(((S)-8-chloro-4-ethyl-4-hydroxy-9-methyl-3,14-dioxo-3,4,12,14-tetrahydro-1H-pyrano[3′,4′:6,7]indolizino[1,2-b]quinolin-11-yl)methyl)-2-hydroxy-3-methylbutanamide]",10 to 100 nM,5.1 nM,–
"CC[C@@]1(O)C(=O)OCc2c1cc1n(c2=O)Cc2c-1nc1ccc3occc3c1c2CNC(=O)CO [Compound 20, (S)-N-((8-ethyl-8-hydroxy-9,12-dioxo-8,9,12,14-tetrahydro-11H-furo[3,2-f]pyrano [3′,4′:6,7]indolizino[1,2-b]quinolin-15-yl)methyl)-2-hydroxyacetamide]",10 to 100 nM,10.5 nM,–
